Experimental data taken from the NIST ThermoML archive (doi:10.1021/je050305z).

Details: Gas, Hot wire method

COC [dimethyl ether]
Details	thermal conductivity [W/m/K]
266.62 K, 148.1 kPa	0.01348
267.77 K, 148.1 kPa	0.01359
268.94 K, 148.1 kPa	0.01363
276.2 K, 155.8 kPa	0.01468
276.2 K, 207.5 kPa	0.01475
277.09 K, 207.5 kPa	0.01483
277.12 K, 155.8 kPa	0.01476
278.14 K, 155.8 kPa	0.01482
278.17 K, 207.5 kPa	0.01489
285.91 K, 253.2 kPa	0.01594
286.05 K, 144.6 kPa	0.01592
286.67 K, 253.2 kPa	0.016
286.89 K, 144.6 kPa	0.01605
287.68 K, 253.2 kPa	0.01614
287.99 K, 144.6 kPa	0.01606
295.96 K, 253.2 kPa	0.01725
296.02 K, 352.9 kPa	0.01726
296.03 K, 154.5 kPa	0.01715
296.69 K, 352.9 kPa	0.01736
296.76 K, 253.2 kPa	0.01733
296.8 K, 154.5 kPa	0.01728
297.39 K, 352.9 kPa	0.0174
297.64 K, 253.2 kPa	0.01739
297.76 K, 154.5 kPa	0.01734
305.64 K, 155.2 kPa	0.01827
305.64 K, 502.4 kPa	0.01848
305.8 K, 352.8 kPa	0.01842
306.69 K, 155.2 kPa	0.01839
306.69 K, 502.4 kPa	0.01861
306.8 K, 352.8 kPa	0.01854
307.53 K, 155.2 kPa	0.01852
307.53 K, 502.4 kPa	0.01872
307.82 K, 352.8 kPa	0.01861
315.68 K, 496.3 kPa	0.01958
315.77 K, 348.9 kPa	0.01952
316.05 K, 153.9 kPa	0.01955
316.35 K, 700.4 kPa	0.02006
316.55 K, 496.3 kPa	0.01971
316.56 K, 700.4 kPa	0.01992
316.75 K, 348.9 kPa	0.01967
317.06 K, 153.9 kPa	0.01957
317.2 K, 700.4 kPa	0.01999
317.63 K, 496.3 kPa	0.01983
317.81 K, 348.9 kPa	0.01977
318.26 K, 153.9 kPa	0.01971
325.16 K, 1120.2 kPa	0.02135
325.31 K, 883.7 kPa	0.02119
325.41 K, 701.6 kPa	0.02104
325.53 K, 500.8 kPa	0.02091
325.64 K, 348 kPa	0.0208
325.83 K, 151.5 kPa	0.02082
325.88 K, 1120.2 kPa	0.02135
326.11 K, 883.7 kPa	0.02133
326.2 K, 701.6 kPa	0.02113
326.36 K, 500.8 kPa	0.021
326.53 K, 348 kPa	0.02093
326.73 K, 1120.2 kPa	0.02156
326.79 K, 151.5 kPa	0.02087
326.99 K, 883.7 kPa	0.02145
327.16 K, 701.6 kPa	0.02125
327.38 K, 500.8 kPa	0.02116
327.53 K, 348 kPa	0.02098
327.88 K, 151.5 kPa	0.02094
335.18 K, 1196.9 kPa	0.02256
335.35 K, 898.7 kPa	0.02238
335.43 K, 705.2 kPa	0.02212
335.48 K, 353.4 kPa	0.02197
335.54 K, 505.2 kPa	0.02204
335.66 K, 152.2 kPa	0.02198
335.88 K, 1196.9 kPa	0.02272
336.11 K, 898.7 kPa	0.02244
336.23 K, 705.2 kPa	0.02226
336.32 K, 353.4 kPa	0.02209
336.37 K, 505.2 kPa	0.02217
336.45 K, 1196.9 kPa	0.0228
336.55 K, 152.2 kPa	0.02211
336.74 K, 898.7 kPa	0.0225
336.91 K, 705.2 kPa	0.02231
337.06 K, 505.2 kPa	0.02229
337.25 K, 353.4 kPa	0.02223
337.54 K, 152.2 kPa	0.02207
345.11 K, 1503.9 kPa	0.02418
345.23 K, 1200.4 kPa	0.0239
345.35 K, 897.3 kPa	0.02352
345.47 K, 700 kPa	0.02344
345.57 K, 502.5 kPa	0.02341
345.59 K, 1503.9 kPa	0.02427
345.67 K, 352.7 kPa	0.02338
345.74 K, 1200.4 kPa	0.02399
345.88 K, 154.3 kPa	0.02322
345.9 K, 897.3 kPa	0.02363
346.03 K, 700 kPa	0.0235
346.12 K, 1503.9 kPa	0.0244
346.15 K, 502.5 kPa	0.02351
346.26 K, 352.7 kPa	0.0234
346.29 K, 1200.4 kPa	0.02408
346.49 K, 897.3 kPa	0.02372
346.52 K, 154.3 kPa	0.02324
346.64 K, 700 kPa	0.02364
346.82 K, 502.5 kPa	0.02361
346.93 K, 352.7 kPa	0.0235
347.27 K, 154.3 kPa	0.02327
354.82 K, 2226 kPa	0.02637
355.11 K, 1777.8 kPa	0.02567
355.2 K, 1497.3 kPa	0.02536
355.22 K, 2226 kPa	0.02653
355.33 K, 1194.9 kPa	0.02506
355.47 K, 872.5 kPa	0.02483
355.55 K, 701.6 kPa	0.02472
355.58 K, 1777.8 kPa	0.02592
355.64 K, 504.3 kPa	0.02468
355.66 K, 2226 kPa	0.02632
355.69 K, 1497.3 kPa	0.02553
355.74 K, 356.1 kPa	0.02462
355.82 K, 1194.9 kPa	0.02508
355.89 K, 156.1 kPa	0.02441
355.97 K, 872.5 kPa	0.02489
356.09 K, 1777.8 kPa	0.02597
356.1 K, 701.6 kPa	0.02489
356.2 K, 504.3 kPa	0.02488
356.21 K, 1497.3 kPa	0.02554
356.31 K, 356.1 kPa	0.02481
356.38 K, 1194.9 kPa	0.02516
356.52 K, 156.1 kPa	0.02447
356.57 K, 872.5 kPa	0.02502
356.72 K, 701.6 kPa	0.0249
356.86 K, 504.3 kPa	0.02485
356.98 K, 356.1 kPa	0.02475
357.23 K, 156.1 kPa	0.02456
364.94 K, 2198.1 kPa	0.02782
365.09 K, 1801.9 kPa	0.02689
365.2 K, 1500.1 kPa	0.0265
365.3 K, 1202 kPa	0.02622
365.42 K, 906.2 kPa	0.02606
365.51 K, 697.2 kPa	0.02598
365.51 K, 2198.1 kPa	0.02789
365.59 K, 481.6 kPa	0.026
365.68 K, 346.3 kPa	0.02589
365.7 K, 1801.9 kPa	0.0271
365.81 K, 1500.1 kPa	0.02669
365.86 K, 156.4 kPa	0.02596
365.94 K, 1202 kPa	0.02635
365.99 K, 2198.1 kPa	0.02796
366.1 K, 906.2 kPa	0.02615
366.2 K, 697.2 kPa	0.02609
366.23 K, 1801.9 kPa	0.02723
366.31 K, 481.6 kPa	0.02599
366.35 K, 1500.1 kPa	0.02675
366.42 K, 346.3 kPa	0.02597
366.52 K, 1202 kPa	0.02642
366.66 K, 156.4 kPa	0.02591
366.7 K, 906.2 kPa	0.02622
366.82 K, 697.2 kPa	0.02608
366.96 K, 481.6 kPa	0.02612
367.09 K, 346.3 kPa	0.02604
367.38 K, 156.4 kPa	0.02597
374.95 K, 2704.4 kPa	0.03029
375.17 K, 2197.8 kPa	0.02893
375.29 K, 1766.8 kPa	0.02826
375.36 K, 1499.6 kPa	0.02784
375.46 K, 892.8 kPa	0.02733
375.49 K, 1198.6 kPa	0.02756
375.49 K, 2704.4 kPa	0.03041
375.54 K, 707.6 kPa	0.02738
375.63 K, 507.4 kPa	0.02734
375.72 K, 354 kPa	0.02727
375.76 K, 2197.8 kPa	0.0291
375.9 K, 152.4 kPa	0.02713
375.92 K, 1766.8 kPa	0.02831
375.95 K, 2704.4 kPa	0.03051
375.97 K, 1499.6 kPa	0.02793
376.14 K, 892.8 kPa	0.02756
376.17 K, 1198.6 kPa	0.0277
376.22 K, 707.6 kPa	0.02749
376.28 K, 2197.8 kPa	0.02917
376.35 K, 507.4 kPa	0.02737
376.45 K, 354 kPa	0.02739
376.46 K, 1766.8 kPa	0.02837
376.56 K, 1499.6 kPa	0.02791
376.68 K, 152.4 kPa	0.02726
376.72 K, 892.8 kPa	0.02758
376.75 K, 1198.6 kPa	0.02773
376.81 K, 707.6 kPa	0.02751
376.96 K, 507.4 kPa	0.0274
377.08 K, 354 kPa	0.02742
377.4 K, 152.4 kPa	0.0273
384.94 K, 3297.7 kPa	0.03329
385.16 K, 2700.7 kPa	0.03115
385.35 K, 2197 kPa	0.02995
385.44 K, 3297.7 kPa	0.03354
385.48 K, 1805.7 kPa	0.02946
385.56 K, 1500.6 kPa	0.02919
385.66 K, 1201.3 kPa	0.02897
385.74 K, 2700.7 kPa	0.03126
385.77 K, 899.9 kPa	0.02885
385.93 K, 503.9 kPa	0.02857
385.95 K, 703 kPa	0.0288
385.98 K, 2197 kPa	0.0301
386 K, 3297.7 kPa	0.03358
386.01 K, 355.6 kPa	0.02861
386.13 K, 1805.7 kPa	0.02959
386.2 K, 156.6 kPa	0.02852
386.22 K, 1500.6 kPa	0.02926
386.33 K, 1201.3 kPa	0.02917
386.38 K, 2700.7 kPa	0.03136
386.48 K, 899.9 kPa	0.02895
386.5 K, 2197 kPa	0.03017
386.6 K, 703 kPa	0.02886
386.65 K, 503.9 kPa	0.02873
386.65 K, 1805.7 kPa	0.02964
386.74 K, 1500.6 kPa	0.02936
386.79 K, 355.6 kPa	0.02867
386.93 K, 1201.3 kPa	0.02916
387.03 K, 156.6 kPa	0.02858
387.08 K, 899.9 kPa	0.02903
387.21 K, 703 kPa	0.02901
387.32 K, 503.9 kPa	0.02881
387.44 K, 355.6 kPa	0.02881
387.74 K, 156.6 kPa	0.02859
